Test results from paper PMC7956625, “Optimization and Anti-Cancer Properties of Fluoromethylketones as Covalent Inhibitors for Ubiquitin C-Terminal Hydrolase L1” (Molecules, 2021).
Positions count from the first letter of the chain named. “Also recorded” adds a separate entry of the source. Where a SMILES comes first, the peptide text is derived from it. The star is where a group is joined. Cbz = O=C(OCc1ccccc1)*; CH2F = FC*

Tests used:
UCHL3 = biological target: T1, UCHL3 (Homo sapiens, UniProt P15374); assay: KMS cell activity-based probe (HA-Ub-VME) target engagement assay; conditions: 0–250 µM, 4 h, UCHL3 immunoblot
T1 sequence (P15374 1-230): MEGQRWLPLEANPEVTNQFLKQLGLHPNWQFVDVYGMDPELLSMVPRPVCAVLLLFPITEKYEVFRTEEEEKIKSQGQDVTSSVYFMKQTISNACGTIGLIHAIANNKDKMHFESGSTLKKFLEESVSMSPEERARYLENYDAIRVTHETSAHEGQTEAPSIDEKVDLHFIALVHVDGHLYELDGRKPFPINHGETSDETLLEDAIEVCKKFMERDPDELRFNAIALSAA
Description: (§1) To confirm on-target engagement in KMS11 cells, a Ub activity-based probe (ABP) gel-shift assay was employed. Using the hemagglutinin-tagged Ub-vinylmethylester (HA-Ub-VME) ABP to examine the activity of 1 in KMS11 cells, an immunoblot was performed. Cells were treated in dose-response with 1 (0–250 µM), washed with PBS, then lysed and treated with HA-Ub-VME. The HA-Ub-VME labels any remaining DUBs that have not been inhibited by 1.
(§2) Twelve hours prior to the addition of compounds to the cells, 1.2 million KMS11 or KMS12 cells mL^−1 per well were seeded in a 12 well plate. Cells were incubated with inhibitor for 4 h before washing the cells three time with PBS to remove excess compound. Cells were harvested, pelleted, and lysed in 60 µL of lysis buffer (0.5%NP-40 in 50 mM Tris pH 7.4). HA-Ub-VME was then added to a final concentration of 1 µM and incubated for 1 h at room temperature. An equal volume of 2X Laemmli sample buffer was added, and the samples were heated to 95 °C before separating by gel electrophoresis and analyzed by immunoblot.

UCHL5 = biological target: T2, UCHL5 (Homo sapiens, UniProt Q9Y5K5); assay: KMS cell activity-based probe (HA-Ub-VME) assay, HA blot higher exposure; conditions: 250 µM, KMS11 cells
T2 sequence (Q9Y5K5 1-245 limits assumed): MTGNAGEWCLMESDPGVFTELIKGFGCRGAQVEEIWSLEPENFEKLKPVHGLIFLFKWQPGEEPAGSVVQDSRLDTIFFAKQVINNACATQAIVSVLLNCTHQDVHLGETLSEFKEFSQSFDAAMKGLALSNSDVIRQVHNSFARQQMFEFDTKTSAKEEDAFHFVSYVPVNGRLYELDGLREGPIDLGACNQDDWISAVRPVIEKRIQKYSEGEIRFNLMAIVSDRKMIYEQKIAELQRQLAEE
Description: as §1, §2

KMS11 cells = assay: KMS cell proliferation assay (IncuCyte); format: cell-based; conditions: 100 µM; 24, 48, 72 and 96 h
Description: (§3) The proliferation of KMS11 and KMS12 cells was monitored using an IncuCyte devise (Sartorius, Goettingen, Germany; www.essenbioscience.com, accessed on 31 August 2020). Cells (3 × 10^4 per well; 200 µL) were seeded in triplicate in 96 well plates the night prior to the addition of compounds. The IncuCyte was set to collect images from five fields per well at 4-h intervals by using the nuclear dye Nuclight Red (Sartorius). At each timepoint, the number of cells per well was deter- mined by taking the mean of the five locations in each well. The relative proliferation at each timepoint was normalized, with 100% set as the number of cells observed for incubated with DMSO (0.1%) controls at 72 h.

KMS12 cells = assay: KMS cell proliferation assay (IncuCyte); format: cell-based; conditions: 100 µM; 24 to 96 h; cells do not express UCHL1
Description: as §3

His-UCHL1 = biological target: T3, His-UCHL1 (Homo sapiens, UniProt P09936); assay: Ub binding affinity analysis using biolayer interferometry; conditions: His-UCHL1 preincubated with 1 (2 mM) overnight at room temperature
T3 construct: made in house
T3 sequence (P09936 1-223): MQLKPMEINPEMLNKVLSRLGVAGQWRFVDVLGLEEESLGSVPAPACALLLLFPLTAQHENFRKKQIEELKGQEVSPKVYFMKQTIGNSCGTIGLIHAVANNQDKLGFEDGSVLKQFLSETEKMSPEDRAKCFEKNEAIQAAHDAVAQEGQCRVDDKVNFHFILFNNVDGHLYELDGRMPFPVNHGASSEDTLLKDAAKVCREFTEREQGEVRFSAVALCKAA
Description: The concentration of His-UCHL1 was determined by A280 on a NanoDrop system (Thermo Scientific), after which His-UCHL1 was diluted into BLI buffer [1× PBS containing 0.05% (v/v) Tween 20 and 0.1% (w/v) bovine serum albumin (BSA)]. […] The Ni-NTA biosensor was dipped first into BLI buffer (initial baseline, 60 s), then into the His-UCH protein wells (loading step, 300 s), then into BLI buffer alone (baseline step, 60 s), then into the lowest concentration of UbV (association step, 120 s), and then into buffer alone (dissociation step, 100 s). A reference sensor loaded with protein was dipped into wells containing only buffer to adjust for protein-buffer signals. The association-dissociation was repeated with increasing concentrations of UbV. All measurements were taken at 30 °C.
Octet RED384 Data Analysis Software (ForteBio, version 9.0.0.15) was used to collect and analyze the raw data for the association and dissociation curves.

UCHL1 C90A = biological target: T4, UCHL1 C90A (Homo sapiens, UniProt P09936, C90A); assay: Click reaction and in-gel fluorescence, recombinant protein; format: binding; conditions: 10 µM inhibitor, 3 h, Cy5-Azide click
T4 construct: His (N); made in house
T4 sequence (P09936 1-223 C90A): T3 sequence (P09936 1-223) with C90A
Description: (§4) A common shortcoming to covalent inhibitors is that the reactive electrophilic groups may partake in non-specific labeling of off-target cysteines. To investigate if alternative cysteines are affected on UCHL1 we used analog 34 to confirm that the fluoromethylketone derivatives only conjugate Cys90. […] Additionally, samples were analyzed by mass spectrometry to increase sensitivity for detection of any non-Cys90 adducts. […]
(§5) Solutions containing 1 mg/mL recombinant UCHL1^WT or UCHL1^C90A (from pET15b) (49 µL) was incubated with 10 µM inhibitor for 3 h at room temperature in PBS starting block buffer (Thermo Scientific # 37538). After 3 h, 6 µL of a freshly prepared cocktail was added to each sample, consisting of: 3 µL 1.7 mM THPTA in 1:4 DMSO/tBuOH (100 µM final concentration), 1 µL 50 mM CuSO4 (1 mM final concentration), 1 µL TCEP HCl (25 µM final concentration), and 1 uL Cy5-Azide (#AZ118, Click Chemistry Tools, Scottsdale, AZ, USA; 25 µM final concentration). The samples were allowed to react for 2 h at room temperature protected from light before precipitating the sample by adding 600 µL MeOH, 150 µL chloroform, and 400 µL water, vortexing between each addition. The samples were pelleted by centrifuging at […] for 5 min. […] The samples were then analyzed by SDS-PAGE and imaged on an Odyssey system (LI-COR, Lincoln, NE, USA) and subsequently Coomassie stained.

UCHL1^WT = biological target: T5, UCHL1^WT (Homo sapiens, UniProt P09936); assay: as above; format: binding; conditions: 10 µM inhibitor, 3 h, Cy5-Azide click
T5 construct: His (N); made in house
T5 sequence (P09936 1-223): T3 sequence (P09936 1-223)
Description: as §4, §5

Compound: COC(=O)CC[C@H](NC(=O)[C@H](C)NC(=O)[C@@H](NC(=O)OCc1ccccc1)C(C)C)C(=O)CF [Cpd 1, benzyloxycarbonyl-Val-Ala-Glu(γ-methoxy)-fluoromethylketone] (Cbz-Val-Ala-Glu(OMe)-CH2F)
- HA-Ub-UCHL3 complex formation in KMS11 cells (UCHL3): does not inhibit UCHL3 in cells
- inhibition of DUB corresponding to the molecular weight UCHL5 (UCHL5): may also be inhibited
- proliferation of KMS11 cells compared to DMSO (KMS11 cells): reduced proliferation; also recorded: anti-proliferative properties
- proliferation of KMS12 cells compared to DMSO (KMS12 cells): showed reduced growth at the 24-h timepoint but regained proliferative ability at the 96-h timepoint
- effect of conjugated 1 on UCHL1:Ub interaction (His-UCHL1): completely abrogated the ability of UCHL1 to interact with Ub

Compound: C#Cc1ccc(COC(=O)N[C@H](C(=O)N[C@@H](C)C(=O)N[C@@H](CCC(=O)OC)C(=O)CF)C(C)C)cc1 [Cpd 34]
- covalent adduct with UCHL1 C90A (in-gel fluorescence) (UCHL1 C90A): does not form an adduct; also recorded: no fluorescent bands were observed
- covalent adduct with WT-UCHL1 (in-gel fluorescence) (UCHL1^WT): forms a covalent adduct with WT-UCHL1; also recorded: formed a covalent adduct
